Common to all, as to format: in vivo
Test [1] relates to Eiysiphe graminis f. sp. tritici. The test can be described thus: Test A: wheat powdery mildew, preventive spray on wheat seedlings. The settings on record: for Test A disease control rating (100 = 100% disease control, 0 = no disease control): wheat seedlings sprayed to run-off, inoculated the following day, rating relative to controls, unmarked compounds (standard test rate); for Test A disease control rating: wheat powdery mildew. In short, it runs like this: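 Compounds (3% acetone, 250 ppm Trem 014) sprayed to run-off on wheat seedlings, inoculated next day with spore dust. Incubated 7 days at 20° C before disease rating, 0–100% control relative to untreated controls.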

Test [2] relates to Puccinia recondita. The test can be described thus: Test B: wheat leaf rust, preventive spray on wheat seedlings. The following applies: for Test B disease control rating (100 = 100% disease control, 0 = no disease control): wheat seedlings sprayed to run-off, inoculated the following day, rating relative to controls, unmarked compounds (standard test rate); for Test B disease control rating: wheat leaf rust. In short, it runs like this:
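Wheat seedlings were sprayed to run-off with compound (3% acetone, 250 ppm Trem 014), then inoculated with P. recondita spores the next day. They were held 24 h saturated at 20 °C, then 6 days at 20 °C. Ratings are 0–100% disease control versus controls.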

For test [3], the system named is Pyricularia oryzae. The following applies: for Test C disease control rating (100 = 100% disease control, 0 = no disease control): rice seedlings sprayed to run-off, inoculated the following day, rating relative to controls, unmarked compounds (standard test rate); for Test C disease control rating: rice blast.
The test system of test [4] is Phytophthora infestans. The settings on record: for Test D disease control rating (100 = 100% disease control, 0 = no disease control): tomato seedlings sprayed to run-off, inoculated the following day, rating relative to controls, unmarked compounds (standard test rate); for Test D disease control rating: tomato late blight.
Test [5] concerns Botrytis cinerea. The test can be described thus: Test E: gray mold, preventive spray on cucumber seedlings. The settings on record: for Test E disease control rating (100 = 100% disease control, 0 = no disease control): cucumber seedlings sprayed to run-off, inoculated the following day, rating relative to controls, unmarked compounds (standard test rate); for Test E disease control rating: gray mold on cucumber. The gist of the method:
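Compounds in 3% acetone were suspended with 250 ppm Trem 014 surfactant and sprayed to run-off on cucumber seedlings. B. cinerea spores were inoculated next day, then 48 h saturated humidity at 20° C and 5 days at 20° C. Disease control rated 0–100% versus controls.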

Setting [6] is: 100 = 100% disease control, 0 = no control relative to controls, unmarked entries (standard test concentration).
[7] abbreviates: 100 = 100% disease control, 0 = no control, unmarked entries (standard test concentration).

Structures are written as SMILES. Read-outs that look alike come from different tables or passages of the source.

For `CCC1(C(=O)NC(C)C=Cc2ccc(Cl)cc2Cl)C(C)C1(Cl)Cl` (centres unmarked) [compound 266], in test [1], the “Test A disease control rating (100 = 100% disease control, 0 = no disease control)” value is 63%. Further, the “Test B disease control rating (100 = 100% disease control, 0 = no disease control)” value in test [2] stood at 0%. Moreover, the “Test C disease control rating (100 = 100% disease control, 0 = no disease control)” value in test [3] amounted to 91%. Moreover, the “Test D disease control rating (100 = 100% disease control, 0 = no disease control)” value in test [4] was found to be 74%. Also, the “Test E disease control rating (100 = 100% disease control, 0 = no disease control)” value in test [5] was found to be 0%.

With `CC(COc1ccccc1C#N)NC(=O)C(C#N)C(C)(C)C` (mixture of isomers) [13a], in test [1] (setting [6]), the “Test A disease control rating” value came to 34%. Also, the “Test B disease control rating” value in test [2] (setting [7]) is 0%. Besides, in test [3] (setting [7]), the “Test C disease control rating” value is on record as 51%. Further, the “Test D disease control rating” value in test [4] (setting [7]) is reported as 0%. Further, in test [5] (setting [7]), the “Test E disease control rating” value is recorded as 0%.

On to `CCC1(C(=O)NCCOc2ccccc2)C(C)C1(Cl)Cl` (centres unmarked) [compound 153], for which the “Test A disease control rating” value in test [1] (setting [6]) came out at 92%. Also, the “Test B disease control rating” value in test [2] (setting [7]) is 64%. In test [3] (setting [7]), the “Test C disease control rating” value is 94%. Besides, the “Test D disease control rating” value in test [4] (setting [7]) is 92%. In test [5] (setting [7]), the “Test E disease control rating” value is reported as 0%.

Regarding `C[C@H](COc1ccc(Cl)cc1)NC(=O)C(C#N)C(C)(C)C` (single isomer, unassigned) [7c], the “Test A disease control rating” value in test [1] (setting [6]) is on record as 0%. Moreover, in test [2] (setting [7]), the “Test B disease control rating” value stood at 0%. Moreover, in test [3] (setting [7]), the “Test C disease control rating” value amounted to 86%. Further, the “Test D disease control rating” value in test [4] (setting [7]) turned out to be 9%. For the same compound, in test [5] (setting [7]), the “Test E disease control rating” value was determined as 45%.

In the case of `CC(COc1cc(F)cc(F)c1C#N)NC(=O)C(C#N)C(C)C(C)(C)C` (mixture of isomers) [compound 69], the “Test A disease control rating” value in test [1] (setting [6]) stood at 0%. In addition, the “Test B disease control rating” value in test [2] (setting [7]) was found to be 0%. Moreover, the “Test C disease control rating” value in test [3] (setting [7]) is recorded as 53%. Further, the “Test D disease control rating” value in test [4] (setting [7]) turned out to be 2%. The “Test E disease control rating” value in test [5] (setting [7]) is recorded as 0%.

`C[C@H](COc1cccc(F)c1)NC(=O)C(C#N)C(C)(C)C` (single isomer, unassigned) [3e]: the “Test A disease control rating” value in test [1] (setting [6]) was found to be 86%. In test [2] (setting [7]), the “Test B disease control rating” value was 0%. In test [3] (setting [7]), the “Test C disease control rating” value stood at 100%. In addition, in test [4] (setting [7]), the “Test D disease control rating” value is reported as 68%. Further, in test [5] (setting [7]), the “Test E disease control rating” value turned out to be 0%.

In the case of `CC(COc1ccccc1CF)NC(=O)C(C#N)C(C)(C)C` (mixture of isomers) [compound 175], in test [1] (tested at 40 ppm), the “Test A disease control rating” value was determined as 0%. Further, the “Test B disease control rating” value in test [2] (tested at 40 ppm) was 0%. Moreover, the “Test C disease control rating” value in test [3] (tested at 40 ppm) stood at 74%. Further, the “Test D disease control rating” value in test [4] (tested at 40 ppm) turned out to be 33%. Also, the “Test E disease control rating” value in test [5] (tested at 40 ppm) was 0%.

Consider `CCC1(C(=O)NC(C)COc2cc(Br)ccc2C#N)C(C)C1(Cl)Cl` (centres unmarked) [compound 246], for which the “Test A disease control rating (100 = 100% disease control, 0 = no disease control)” value in test [1] is reported as 53%. Moreover, the “Test B disease control rating (100 = 100% disease control, 0 = no disease control)” value in test [2] amounted to 0%. Further, in test [3], the “Test C disease control rating (100 = 100% disease control, 0 = no disease control)” value is on record as 97%. Also, the “Test D disease control rating (100 = 100% disease control, 0 = no disease control)” value in test [4] is on record as 0%. Further, the “Test E disease control rating (100 = 100% disease control, 0 = no disease control)” value in test [5] came to 0%.

In the case of `CCC1(C(=O)NC(C)COc2cc(Cl)cc(Cl)c2)C(C)C1(Cl)Cl` (centres unmarked) [compound 115], the “Test A disease control rating” value in test [1] (tested at 40 ppm) is given as 52%. Moreover, the “Test B disease control rating” value in test [2] (tested at 40 ppm) was found to be 0%. The “Test C disease control rating” value in test [3] (tested at 40 ppm) amounted to 32%. Also, the “Test D disease control rating” value in test [4] (tested at 40 ppm) is 0%. Moreover, the “Test E disease control rating” value in test [5] (tested at 40 ppm) is given as 0%.

With `C#CC(C)(C)C(C#N)C(=O)NC(C)COc1cc(F)ccc1Cl` (mixture of isomers) [compound 193], in test [1] (setting [6]), the “Test A disease control rating” value is on record as 0%. Besides, the “Test B disease control rating” value in test [2] (setting [7]) is 0%. Besides, the “Test C disease control rating” value in test [3] (setting [7]) is on record as 100%. For the same compound, in test [4] (setting [7]), the “Test D disease control rating” value amounted to 0%. The “Test E disease control rating” value in test [5] (setting [7]) worked out at 55%.

On to `CC(COc1ccc(Br)cc1)NC(=O)C(C#N)C(C)(C)C` (single isomer, unassigned) [10a], for which the “Test A disease control rating” value in test [1] (setting [6]) is 0%. The “Test B disease control rating” value in test [2] (setting [7]) was found to be 27%. For the same compound, in test [3] (setting [7]), the “Test C disease control rating” value was 86%. Also, the “Test D disease control rating” value in test [4] (setting [7]) was 23%. The “Test E disease control rating” value in test [5] (setting [7]) was 0%.

For the compound `C#CC(C)(C=C)C(C#N)C(=O)NC(C)COc1cc(Cl)ccc1F` (mixture of isomers) [compound 302], in test [1], the “Test A disease control rating (100 = 100% disease control, 0 = no disease control)” value is listed as 0%. The “Test B disease control rating (100 = 100% disease control, 0 = no disease control)” value in test [2] is 0%. In addition, the “Test C disease control rating (100 = 100% disease control, 0 = no disease control)” value in test [3] is reported as 99%. For the same compound, the “Test D disease control rating (100 = 100% disease control, 0 = no disease control)” value in test [4] was 24%. The “Test E disease control rating (100 = 100% disease control, 0 = no disease control)” value in test [5] is given as 0%.

In the case of `CCc1ccccc1OCC(C)NC(=O)C1(CC)C(C)C1(Cl)Cl` (mixture of isomers) [97a], in test [1] (tested at 40 ppm), the “Test A disease control rating” value stood at 0%. For the same compound, the “Test B disease control rating” value in test [2] (tested at 40 ppm) is reported as 0%. In test [3] (tested at 40 ppm), the “Test C disease control rating” value amounted to 0%. The “Test D disease control rating” value in test [4] (tested at 40 ppm) amounted to 20%. For the same compound, the “Test E disease control rating” value in test [5] (tested at 40 ppm) turned out to be 0%.

With `C[C@H](COc1cc(F)cc(F)c1Cl)NC(=O)C(C#N)C(C)(C)C` (single isomer, unassigned) [169a], the “Test A disease control rating” value in test [1] (setting [6]) came to 84%. In addition, the “Test B disease control rating” value in test [2] (setting [7]) is 27%. Moreover, the “Test C disease control rating” value in test [3] (setting [7]) amounted to 91%. Moreover, the “Test D disease control rating” value in test [4] (setting [7]) amounted to 24%. Besides, in test [5] (setting [7]), the “Test E disease control rating” value turned out to be 0%.

On to `C[C@H](COc1cc(Cl)ccc1Cl)NC(=O)C(C#N)C(C)(C)C` (single isomer, unassigned) [33a], for which the “Test A disease control rating” value in test [1] (setting [6]) came to 0%. In addition, the “Test B disease control rating” value in test [2] (setting [7]) was 0%. Also, the “Test C disease control rating” value in test [3] (setting [7]) is listed as 97%. Moreover, in test [4] (setting [7]), the “Test D disease control rating” value amounted to 0%. Further, in test [5] (setting [7]), the “Test E disease control rating” value is listed as 0%.

On to `CC(COc1ccccc1F)NC(=O)C(C#N)C(C)C(C)(C)C` (mixture of isomers) [compound 57], for which the “Test A disease control rating” value in test [1] (tested at 40 ppm) came to 91%. For the same compound, the “Test B disease control rating” value in test [2] (tested at 40 ppm) worked out at 0%. Also, the “Test C disease control rating” value in test [3] (tested at 40 ppm) stood at 85%. The “Test D disease control rating” value in test [4] (tested at 40 ppm) is listed as 0%. Further, the “Test E disease control rating” value in test [5] (tested at 40 ppm) is reported as 0%.

For `C[C@H](COc1cccc(Cl)c1)NC(=O)C(C#N)C(C)(C)C` (single isomer, unassigned) [6e], in test [1] (setting [6]), the “Test A disease control rating” value amounted to 0%. Further, in test [2] (setting [7]), the “Test B disease control rating” value was found to be 0%. For the same compound, the “Test C disease control rating” value in test [3] (setting [7]) turned out to be 100%. Besides, the “Test D disease control rating” value in test [4] (setting [7]) is given as 96%. Further, in test [5] (setting [7]), the “Test E disease control rating” value turned out to be 70%.

`CC(COc1ccccc1C(F)(F)F)NC(=O)C(C#N)C(C)(C)C` (mixture of isomers) [17b]: in test [1] (setting [6]), the “Test A disease control rating” value is recorded as 38%. Besides, the “Test B disease control rating” value in test [2] (setting [7]) came out at 28%. Besides, in test [3] (setting [7]), the “Test C disease control rating” value is reported as 100%. Also, the “Test D disease control rating” value in test [4] (setting [7]) came to 0%. Besides, the “Test E disease control rating” value in test [5] (setting [7]) came out at 0%.

On to `CC(COc1cccc(C(F)(F)F)c1C#N)NC(=O)C(C#N)C(C)C(C)(C)C` (mixture of isomers) [compound 66], for which the “Test A disease control rating” value in test [1] (setting [6]) is on record as 0%. Moreover, the “Test B disease control rating” value in test [2] (setting [7]) was 0%. In addition, the “Test C disease control rating” value in test [3] (setting [7]) amounted to 0%. Moreover, in test [4] (setting [7]), the “Test D disease control rating” value is on record as 69%. Moreover, the “Test E disease control rating” value in test [5] (setting [7]) turned out to be 0%.

(Values after patent US6642392B1 (priority 1997, dated 2003).)
